In US9969709B2, “Guanidinobenzoic acid ester compound” (Takeda Pharmaceutical Company Limited, priority 2013, dated 2018):
Counter-ions that a name gives are not always drawn.

Key:
[1] = molecular target: T1, human recombinant trypsin (rh-trypsin) (Homo sapiens, UniProt P07477); assay: Trypsin inhibitory activity, human recombinant trypsin, BZiPAR fluorescent substrate; type: biochemical; settings: 30 min at room temperature, read-out: r-h Trypsin inhibitory activity (IC50)
T1 construct: purchased Wako Pure Chemical Industries, Ltd. 206-17171
Description: (§1) 1. Confirmation of Trypsin Inhibitory Activity in Humans and Mice In the experiment, human recombinant trypsin (rh-trypsin; manufactured by Wako Pure Chemical Industries, Ltd.), cat. #206-17171) and mouse trypsin (m-trypsin; purified from the mouse small intestine contents by the present inventors) were used. The method for purifying m-trypsin from the contents of the mouse small intestine is shown below. The compound was dissolved in dimethyl sulfoxide (DMSO), and diluted to an arbitrary concentration (A). A was 100-fold diluted with a buffer (0.1 M Tris (pH 8.0), 0.15 M NaCl, 10 mM CaCl2, 0.05% Brij35) (B). The rh-trypsin was diluted with a buffer to 0.088 μg/mL, and for the m-trypsin, the purified fraction liquid was 50-fold diluted with the buffer (C). […] A BZiPAR solution (Rhodamine Reference Substrate) which is substrate for the trypsin enzyme was diluted with the buffer to […] (D). 5 μL of B, 5 μL of C, and 10 μL of D were added to a 384-well plate, and incubated at room temperature for 30 minutes. Fluorescent signals were detected at a maximum excitement (Ex)/fluorescent wavelength (Em)=497 nm/520 nm using a Tecan Safire Fluorometer. […] Based on the obtained inhibitory rates, the trypsin inhibitory activities (IC50 values, nM) were calculated from the non-linear regression.

[2] = system: T2, mouse trypsin (m-trypsin); assay: Trypsin inhibitory activity, mouse trypsin purified from small intestine contents, BZiPAR fluorescent substrate; type: biochemical; settings: 30 min at room temperature
T2 construct: mouse trypsin (m-trypsin)
Text: 1. Confirmation of Trypsin Inhibitory Activity in Humans and Mice
In the experiment, human recombinant trypsin (rh-trypsin; manufactured by Wako Pure Chemical Industries, Ltd.), cat. #206-17171) and mouse trypsin (m-trypsin; purified from the mouse small intestine contents by the present inventors) were used. The method for purifying m-trypsin from the contents of the mouse small intestine is shown below.
The small intestine contents and the gastrointestinal tract obtained from 10 mice were homogenized in phosphate buffer saline (PBS) using Polytron, and subjected to centrifugation several times at 15,000×g for 10 minutes. The supernatant was mixed at 4° C. for 16 hours with a Benzamidine Sepharose 4 Fast Flow Resin (GE Healthcare: #17-5123-10). After washing the resin with PBS, m-trypsin was eluted with a glycine buffer (pH 3.0) to carry out purification. It was confirmed by Western blot analysis that the obtained purified fraction was recognized as an Anti-mouse Trypsin Antibody (Santa Cruz Biotechnology, Inc.: sc-67388). The method for measuring the trypsin inhibiting activity is shown below.
as §1, with “The” for “1. Confirmation of Trypsin Inhibitory Activity in Humans and Mice In the experiment, human recombinant trypsin (rh-trypsin; manufactured by Wako Pure Chemical Industries, Ltd.), cat. #206-17171) and mouse trypsin (m-trypsin; purified from the mouse small intestine contents by the present inventors) were used. The method for purifying m-trypsin from the contents of the mouse small intestine is shown below. The”

ICR mice = assay: Test of increase in fecal protein concentration using mice; type: in vivo, mouse; settings: 5 mg/kg oral, male ICR mice, feces collected 3 to 9 hours after feeding started, control group = 1; for response vs control in vivo at 5 mg/kg: Mus musculus, po, 9 h, read-out: Fecal protein, Folds (vs. control)
Description: 2. Test of Increase in Fecal Protein Concentration Using Mice
For the experiment, 6-week old male ICR mice were used. The experiment was carried out in five mice per group. After fasting the mice for 15 hours, the control group was forcibly orally administered with a 0.5% methyl cellulose (MC) solution, and the test drug group was forcibly orally administered (5 mg/kg) with a solution or suspension obtained by dissolving or suspending the compound in the 0.5% MC solution. The fasting was stopped immediately thereafter, free feeding (CE-2) was started, and then the feces were collected from after 3 hours to after 9 hours, and weighed. All of the obtained feces were suspended in 6 mL of distilled water, and centrifuged at 1,940×g for 10 minutes. The protein concentration in the obtained supernatant was measured by a Bradford method, and the amount of the protein in 1 g of feces was calculated by dividing the protein concentration in the feces by the total weight of feces. Further, the efficacy was investigated from the ratio to the control group. For the compounds that were evaluated multiple times, the average values were calculated.
The results of the activities with an increase in Fecal Protein, assuming a value for the control group as 1, are shown in Table 2.

SMILES | IC50 [1] | IC50 [2] | response vs control in vivo at 5 mg/kg (ICR mice) | Fecal protein, Folds (vs. control) (ICR mice)
C[C@H](C(=O)O)N(Cc1csc(C(=O)O)c1)C(=O)C1CCc2cc(OC(=O)c3ccc(NC(=N)N)cc3)ccc2C1 (stereo partly drawn) [Example 21] | 0.38 nM | 0.52 nM | 251% | 
N=C(N)Nc1ccc(C(=O)Oc2ccc3c(C(=O)N(CC(=O)O)Cc4cccc(CC(=O)O)c4)cccc3c2)cc1 [Example 42] | 0.2 nM | 0.14 nM | 204% | 
N=C(N)Nc1ccc(C(=O)Oc2ccc3c(c2)CCC3CC(=O)N[C@@H](Cc2ccc(C(=O)O)cc2)C(=O)O)cc1 (stereo partly drawn) [Example 53] | 0.54 nM | 0.6 nM | 164% | 
Cl.N=C(N)Nc1ccc(C(=O)Oc2ccc3c(c2)CCCC3CC(=O)N(CC(=O)O)Cc2cccc(C(=O)O)c2)cc1 (single isomer, unassigned) [Example 6, 3-{[({(1R)-6-[(4-carbamimidamidobenzoyl)oxy]-1,2,3,4-tetrahydronaphthalen-1-yl}acetyl)(carboxymethyl)amino]methyl}benzoic acid or an enantiomer thereof] | 0.29 nM | 0.2 nM |  | 1.84
C[C@H](C(=O)O)N(Cc1csc(C(=O)O)c1)C(=O)c1csc2cc(OC(=O)c3ccc(NC(=N)N)cc3)ccc12 [Example 29] | 0.26 nM | 0.23 nM | 143% | 
N=C(N)Nc1ccc(C(=O)Oc2ccc3cc(C(=O)N(CCC(=O)O)Cc4csc(C(=O)O)c4)ccc3c2)cc1 [Example 56] | 0.35 nM | 0.59 nM | 145% | 
N=C(N)Nc1ccc(C(=O)Oc2ccc3c(c2)CCCC3CC(=O)N(CCc2ccc(C(=O)O)cc2)CC(=O)O)cc1 (stereo not drawn) [Example 28] | 0.38 nM | 0.4 nM | 154% | 
N=C(N)Nc1ccc(C(=O)Oc2ccc3c(C(=O)N(CC(=O)O)Cc4csc(C(=O)O)c4)cccc3c2)cc1 [Example 57] | 0.19 nM | 0.38 nM | 225% | 
N=C(N)Nc1ccc(C(=O)Oc2ccc3c(c2)CCCC3CC(=O)N(CCC(=O)O)Cc2csc(C(=O)O)c2)cc1 (stereo not drawn) [Example 55] | 0.35 nM | 0.47 nM | 230% | 
N=C(N)Nc1ccc(C(=O)Oc2ccc3c(c2)CCC(C(=O)N[C@@H](Cc2ccc(C(=O)O)cc2)C(=O)O)C3)cc1 (stereo partly drawn) [Example 35] | 0.37 nM | 0.42 nM | 159% | 
C[C@H](C(=O)O)N(Cc1csc(C(=O)O)c1)C(=O)CC1CCCc2cc(OC(=O)c3ccc(NC(=N)N)cc3)ccc21 (single isomer, unassigned) [Example 8, 4-({({(1R)-6-[(4-carbamimidamidobenzoyl)oxy]-1,2,3,4-tetrahydronaphthalen-1-yl}acetyl) [(1R)-1-carboxyethyl]amino}methyl)thiophene-2-carboxylic acid or an epimer at position 1 of the 1,2,3,4-tetrahydronaphthalene] | 0.43 nM | 0.57 nM |  | 1.90
N=C(N)Nc1ccc(C(=O)Oc2ccc3c(C(=O)N(CC(=O)O)Cc4csc(C(=O)O)c4)csc3c2)cc1 [Example 13] | 0.25 nM | 0.36 nM | 273% | 
N=C(N)Nc1ccc(C(=O)Oc2ccc3c(c2)CCC(C(=O)N(CC(=O)O)Cc2ccc4sc(C(=O)O)cc4c2)C3)cc1 (stereo not drawn) [Example 24] | 0.23 nM | 0.24 nM | 151% | 
N=C(N)Nc1ccc(C(=O)Oc2ccc3c(c2)CCC(C(=O)N(CCC(=O)O)Cc2csc(C(=O)O)c2)C3)cc1 (stereo not drawn) [Example 45] | 0.36 nM | 0.54 nM | 138% | 
N=C(N)Nc1ccc(C(=O)Oc2ccc3c(c2)CCCC3CC(=O)N2Cc3cc(C(=O)O)ccc3C[C@@H]2C(=O)O)cc1 (stereo partly drawn) [Example 30] | 0.25 nM | 0.28 nM | 168% | 
N=C(N)Nc1ccc(C(=O)Oc2ccc3c(c2)CCCC3CC(=O)N(CC(=O)O)Cc2csc(C(=O)O)c2)cc1 (stereo not drawn) [Example 27] | 0.32 nM | 0.35 nM | 198% | 
N=C(N)Nc1ccc(C(=O)Oc2ccc3c(C(=O)N(CCC(=O)O)Cc4csc(C(=O)O)c4)cccc3c2)cc1 [Example 43] | 0.17 nM | 0.19 nM | 198% | 
N=C(N)Nc1ccc(C(=O)Oc2ccc3c(C(=O)N[C@@H](Cc4ccc(C(=O)O)cc4)C(=O)O)cccc3c2)cc1 [Example 3, N-{6-[(4-carbamimidamidobenzoyl)oxy]-1-naphthoyl}-4-carboxy-L-phenylalanine monohydrochloride] | 0.21 nM | 0.22 nM | 209% | 
N=C(N)Nc1ccc(C(=O)Oc2ccc3c(c2)CCCC3CC(=O)N(CC(=O)O)Cc2cccc(CC(=O)O)c2)cc1 (stereo not drawn) [Example 41] | 0.26 nM | 0.22 nM | 201% | 
N=C(N)Nc1ccc(C(=O)Oc2ccc3c(c2)CCC3CC(=O)N(CC(=O)O)Cc2csc(C(=O)O)c2)cc1 (stereo not drawn) [Example 49] | 0.37 nM | 0.45 nM | 207% | 
N=C(N)Nc1ccc(C(=O)Oc2ccc3c(C(=O)N(CC(=O)O)Cc4ccc5sc(C(=O)O)cc5c4)csc3c2)cc1 [Example 32] | 0.15 nM | 0.14 nM | 190% | 
N=C(N)Nc1ccc(C(=O)Oc2ccc3c(c2)CCC3CC(=O)N(CC(=O)O)Cc2cccc(C(=O)O)c2)cc1 (stereo not drawn) [Example 11] | 0.31 nM | 0.68 nM | 263% | 
N=C(N)Nc1ccc(C(=O)Oc2ccc3c(c2)CCCC3CC(=O)N(Cc2ccccc2)CC(CC(=O)O)CC(=O)O)cc1 (stereo not drawn) [Example 44] | 0.2 nM | 0.2 nM | 172% | 
N=C(N)Nc1ccc(C(=O)Oc2ccc3cc(C(=O)N[C@@H](Cc4ccc(C(=O)O)cc4)C(=O)O)ccc3c2)cc1 [Example 37] | 0.24 nM | 0.18 nM | 174% | 
N=C(N)Nc1ccc(C(=O)Oc2ccc3c(c2)CCCC3CC(=O)N(CC(=O)O)Cc2cccc(C(=O)O)c2)cc1 (single isomer, unassigned) [Example 5, 3-{[({(1R)-6-[(4-carbamimidamidobenzoyl)oxy]-1,2,3,4-tetrahydronaphthalen-1-yl}acetyl)(carboxymethyl)amino]methyl}benzoic acid or an enantiomer thereof] | 0.19 nM | 0.27 nM | 188% | 
N=C(N)Nc1ccc(C(=O)Oc2ccc3c(c2)CCC(C(=O)N(CC(=O)O)Cc2cccc(C(=O)O)c2)C3)cc1 (stereo not drawn) [Example 58] | 0.68 nM | 0.74 nM | 218% | 
